Laboratory results as given in patent US20220041647A1, “ESTRA-1,3,5(10)-TRIENE COMPOUNDS CONDENSED IN POSITION 16(17) WITH A PYRAZOLE RING AS INHIBITORS OF 17-HSD1” (FORENDO PHARMA LTD, priority 2018, published 2022).

Assays:
Type in all cases: biochemical
[1] = target: T1, recombinant human 17β-HSD1 (Homo sapiens, UniProt P14061); assay: Inhibition of recombinant human 17β-HSD1 (estrone to estradiol conversion, HPLC/radioactivity); conditions: compound 100 nM; 30 nM estrone, 1 mM NADPH, 30 min RT
T1 construct: made in house; host or cells: Sd9 (Sf9) insect cells, baculovirus (Bac to Bac Expression System)
T1 sequence (P14061 1-328): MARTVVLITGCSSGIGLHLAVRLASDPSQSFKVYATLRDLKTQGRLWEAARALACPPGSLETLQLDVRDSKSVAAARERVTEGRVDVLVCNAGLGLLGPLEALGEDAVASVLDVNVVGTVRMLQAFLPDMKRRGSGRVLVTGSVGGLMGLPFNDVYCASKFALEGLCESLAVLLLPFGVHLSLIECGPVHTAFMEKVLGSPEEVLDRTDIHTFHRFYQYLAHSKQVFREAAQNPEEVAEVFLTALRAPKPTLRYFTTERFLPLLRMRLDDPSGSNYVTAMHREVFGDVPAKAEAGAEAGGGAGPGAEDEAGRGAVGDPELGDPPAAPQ
Experimental: 17β-HSD1 production and isolation: Recombinant baculovirus was generated by the “Bac to Bac Expression System” (Invitrogen). Recombinant bacmid was transfected to Sd9 insect cells using “Cellfectin Reagent” (Invitrogen). 60 h later cells were harvested; the microsomal fraction was isolated as described by Puranen, T. J., Poutanen, M. H., Peltoketo, H. E., Vihko, P. T. and Vihko, R. K. (1994) Site-directed mutagenesis of the putative active site of human 17 β-hydroxysteroid dehydrogenase type 1. Biochem. J. 304: 289-293. Aliquots were stored frozen until determination of enzymatic activity.
Assay—Inhibition of recombinant human 17β-HSD1: Recombinant protein (1 μg/ml) was incubated in 20 mM KH2PO4 pH 7.4 with 30 nM estrone (including 800 000 cpm/ml of ^3H-estrone) and 1 mM NADPH for 30 min at RT, in the presence of the potential inhibitor at concentrations 1 μM or 0.1 μM. Inhibitor stock solutions were prepared in DMSO. Final concentration of DMSO was adjusted to 1% in all samples. The enzyme reaction was stopped by addition of 10% trichloroacetic acid (final concentration). Samples were centrifuged in a microtiter plate at 4000 rpm for 10 min. Supernatants were applied to reverse phase HPLC on a Waters Symmetry C18 column, equipped with a Waters Sentry Guard column. Isocratic HPLC runs were performed at RT at a flow rate of 1 ml/min in acetonitrile:water 48:52 as running solvent. Radioactivity was monitored in the eluate by a Scintillation Analyzer. Total radioactivity for estrone and estradiol were determined in each sample and percent conversion of estrone to estradiol was calculated according to the following formula:
% conversion=100×{(cpm estradiol in sample with inhibitor)/[(cpm estrone in sample with inhibitor)+(cpm estradiol in sample with inhibitor)]}/{[(cpm estradiol in sample without inhibitor)/[(cpm estrone in sample without inhibitor)+(cpm estradiol in sample without inhibitor)]}.
(§1) Percent inhibition was calculated followingly: % inhibition=100−% conversion.

[2] = target: T2, recombinant human 17β-HSD2 (Homo sapiens, UniProt P37059); assay: Inhibition of recombinant human 17β-HSD2 (estradiol to estrone conversion, HPLC/radioactivity); conditions: compound 1 μM; 50 nM estradiol, 1 mM NADH, 30 min RT
T2 construct: made in house; host or cells: Sd9 (Sf9) insect cells, baculovirus (Bac to Bac Expression System)
T2 sequence (P37059 1-387): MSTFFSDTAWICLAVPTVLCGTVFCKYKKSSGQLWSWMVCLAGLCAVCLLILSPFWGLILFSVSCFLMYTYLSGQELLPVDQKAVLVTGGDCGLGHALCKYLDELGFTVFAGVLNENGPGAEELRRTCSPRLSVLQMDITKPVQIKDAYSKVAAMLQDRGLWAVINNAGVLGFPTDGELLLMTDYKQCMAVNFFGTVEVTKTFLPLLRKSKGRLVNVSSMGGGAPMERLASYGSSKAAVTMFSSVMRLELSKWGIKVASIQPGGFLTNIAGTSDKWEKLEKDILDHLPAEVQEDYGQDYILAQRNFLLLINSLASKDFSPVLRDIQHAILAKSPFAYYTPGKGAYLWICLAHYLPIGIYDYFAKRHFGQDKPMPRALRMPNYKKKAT
Experimental: 17β-HSD2 production and isolation: Similarly to 173-HSD1 the Recombinant baculovirus was generated by the “Bac to Bac Expression System” (Invitrogen). Recombinant bacmid was transfected to Sd9 insect cells using “Cellfectin Reagent” (Invitrogen). 60 h later cells were harvested and supernatant were fractionated by the following protocol: • cells were dissolved into 40 ml of A-buffer (40 mM TRIS, pH8.0, 20% glycerol, 20 μM NAD, 0.4 mM PMSF, 150 mM NaCl, 0.5% dodecyl-β-maltoside+protease inhibitor cocktail) • cells were sonicated • lysate was incubated on ice for 15 min • lysate was centrifuged 5000 rpm 15 min, +4° C. • centrifugation of the supernatant 180 000 g 30 min, +4° C. • pellet was dissolved into 8 ml of A-buffer • not resuspended material was removed by centrifugation 5000 rpm 15 min, +4° C. • the clear supernatant was divided into 100 μl aliquots and were stored frozen until determination of enzymatic activity.
The amount of 173-HSD2 was analysed by immunoblotting and total protein concentration of each extract batch was determined.
Assay—Inhibition of recombinant human 17β-HSD2: Recombinant protein (4 μg/ml) was incubated in 20 mM KH2PO4 pH 8.5 with 50 nM estradiol (including 800 000 cpm/ml of ^3H-estradiol) and 1 mM NADH for 30 min at RT, in the presence of the potential inhibitor at concentrations 1 μM or 0.1 μM. Inhibitor stock solutions were prepared in DMSO. Final concentration of DMSO was adjusted to 1% in all samples. The enzyme reaction was stopped by addition of 10% trichloroacetic acid (final concentration). Samples were centrifuged in a microtiter plate at 4000 rpm for 10 min. Supernatants were applied to reverse phase HPLC on a Waters Symmetry C18 column, equipped with a Waters Sentry Guard column. Isocratic HPLC runs were performed at RT at a flow rate of1 ml/min in acetonitrile:water 48:52 as running solvent. Radioactivity was monitored in the eluate by a Scintillation Analyzer. Total radioactivity for estrone and estradiol were determined in each sample and percent conversion of estradiol to estrone was calculated according to the following formula:
% conversion=100×{(cpm estrone in sample with inhibitor)/[(cpm estradiol in sample with inhibitor)+(cpm estrone in sample with inhibitor)]}/{[(cpm estrone in sample without inhibitor)/[(cpm estradiol in sample without inhibitor)+(cpm estrone in sample without inhibitor)]}.
as §1

[3] = tested on: HSD1 enzyme that is expressed in rabbit placenta tissue; assay: Inhibition of E1 to E2 conversion in rabbit placenta tissue homogenate; conditions: compound 100 nM, 30 nM estrone, 1 mM β-NADPH, 30 min
Experimental: The assay is based on an enzymatic reaction where HSD1 enzyme that is expressed in rabbit placenta tissue converts its natural substance estrone (E1) to estradiol (E2) in the presence of a co-factor β-NADPH.
Homogenization of rabbit placenta tissue: Weight a piece of the frozen tissue into a Precellys ck28 bead tube. Add buffer solution (20 mM KH2PO4 with 1 mM EDTA, pH 7.4) in 1:2 ratio (e.g. 300 mg of tissue:600 μl reaction buffer solution). Insert the bead tubes to homogenizer and homogenize 2×30 s. 6000 rpm.
Centrifugated 5 min., 2600 rpm at +4° C. and collect supernatant. Aliquots of homogenate are stored in −80° C.
Assay—Inhibition of E1 to E2 conversion in rabbit placenta tissue: The reaction takes place in a buffer solution (20 mM KH2PO4 with 1 mM EDTA, pH 7,4), including appropriate amount of rabbit placenta homogenate, co-factor (1 mM β-NADPH), Substrate (30 nM estrone), labelled substrate as tracer (5 nM [^3H]-estrone), and the potential inhibitor at concentrations 1 μM or 0.1 μM. Inhibitor stock solutions were prepared in DMSO. Final concentration of DMSO was adjusted to 1% in all samples. During a 30-minute incubation part of the estrone is converted to estradiol. The reaction is stopped by lowering the pH to 1 with 10% trichloro acetic acid (TCA). The substrate and conversion products are analyzed by HPLC and a Scintillation counter analyzer. Total radioactivity for estrone and estradiol were determined in each sample and percent conversion of estrone to estradiol was calculated according to the following formula:
% conversion=100×{(cpm estradiol in sample with inhibitor)/[(cpm estrone in sample with inhibitor)+(cpm estradiol in sample with inhibitor)]}/{(cpm estradiol in sample without inhibitor)/[(cpm estrone in sample without inhibitor)+(cpm estradiol in sample without inhibitor)]}.
as §1

C[C@]12CCC3c4cccc(F)c4CCC3C1[C@H](CCC(=O)Nc1ccc(C#N)cn1)c1c[nH]nc12 (stereo partly drawn) [Compound 3, N-(5-Cyanopyridin-2-yl)-3-((8aS,12S)-3-fluoro-8a-methyl-1,2,6b,7,8,8a,10,12,12a,12b-decahydronaphtho[2′,1′:4,5]indeno[1,2-c]pyrazol-12-yl)propanamide]
inhibition at 0.1 µM [1]: 98%
inhibition at 1 µM [2]: 9%
Rabbit placenta inhibition % @100 nM [3]: 54%

COc1ccc(NC(=O)CC[C@@H]2c3c[nH]nc3[C@@]3(C)CCC4c5cccc(F)c5CCC4C23)nn1 (stereo partly drawn) [Compound 6, 3-((8aS,12S)-3-fluoro-8a-methyl-1,2,6b,7,8,8a,10,12,12a,12b-decahydronaphtho[2′,1′:4,5]indeno[1,2-c]pyrazol-12-yl)-N-(6-methoxypyridazin-3-yl)propanamide]
inhibition at 0.1 µM [1]: 93%
inhibition at 1 µM [2]: 8%
Rabbit placenta inhibition % @100 nM [3]: 86%

C[C@]12CCC3c4cccc(F)c4CCC3C1[C@H](CCC(=O)Nc1ccc(F)cn1)c1c[nH]nc12 (stereo partly drawn) [Compound 12, 3-((8aS,12S)-3-fluoro-8a-methyl-1,2,6b,7,8,8a,10,12,12a,12b-decahydronaphtho[2′,1′:4,5]indeno[1,2-c]pyrazol-12-yl)-N-(5-fluoropyridin-2-yl)propanamide]
inhibition at 0.1 µM [1]: 92%
inhibition at 1 µM [2]: 5%
Rabbit placenta inhibition % @100 nM [3]: 46%

Cc1ccnc(NC(=O)CC[C@@H]2c3c[nH]nc3[C@@]3(C)CCC4c5cccc(F)c5CCC4C23)c1 (stereo partly drawn) [Compound 27, 3-((8aS,12S)-3-fluoro-8a-methyl-1,2,6b,7,8,8a,10,12,12a,12b-decahydronaphtho[2′,1′:4,5]indeno[1,2-c]pyrazol-12-yl)-N-(4-methylpyridin-2-yl)propanamide]
inhibition at 0.1 µM [1]: 96%
inhibition at 1 µM [2]: 2%
Rabbit placenta inhibition % @100 nM [3]: 55%

CN(CC1CC1)C(=O)CC[C@@H]1c2c[nH]nc2[C@@]2(C)CCC3c4cccc(F)c4CCC3C12 (stereo partly drawn) [Compound 60, N-(cyclopropylmethyl)-3-((8aS,12S)-3-fluoro-8a-methyl-1,2,6b,7,8,8a,10,12,12a,12b-decahydronaphtho[2′,1′:4,5]indeno[1,2-c]pyrazol-12-yl)-N-methylpropanamide]
inhibition at 0.1 µM [1]: 93%
inhibition at 1 µM [2]: 9%
Rabbit placenta inhibition % @100 nM [3]: 16%

Cn1cc(NC(=O)CC[C@@H]2c3c[nH]nc3[C@@]3(C)CCC4c5cccc(F)c5CCC4C23)cn1 (stereo partly drawn) [Compound 63, 3-((8aS,12S)-3-fluoro-8a-methyl-1,2,6b,7,8,8a,10,12,12a,12b-decahydronaphtho[2′,1′:4,5]indeno[1,2-c]pyrazol-12-yl)-N-(1-methyl-1H-pyrazol-4-yl)propanamide]
inhibition at 0.1 µM [1]: 96%
inhibition at 1 µM [2]: 2%
Rabbit placenta inhibition % @100 nM [3]: 62%

CC(C)(C)NC(=O)CC[C@@H]1c2c[nH]nc2[C@@]2(C)CCC3c4cccc(F)c4CCC3C12 (stereo partly drawn) [Compound 72, N-(tert-butyl)-3-((8aS,12S)-3-fluoro-8a-methyl-1,2,6b,7,8,8a,10,12,12a,12b-decahydronaphtho[2′,1′:4,5]indeno[1,2-c]pyrazol-12-yl)propanamide]
inhibition at 0.1 µM [1]: 93%
inhibition at 1 µM [2]: 2%

C[C@]12CCC3c4ccc(F)cc4CCC3C1[C@H](CCC(=O)N1CCCC1)c1c[nH]nc12 (stereo partly drawn) [Compound 117, 3-((8aS,12S)-4-fluoro-8a-methyl-1,2,6b,7,8,8a,10,12,12a,12b-decahydronaphtho[2′,1′:4,S]indeno[1,2-c]pyrazol-12-yl)-1-(pyrrolidin-1-yl)propan-1-one]
inhibition at 0.1 µM [1]: 73%
inhibition at 1 µM [2]: 2%

C[C@]12CCC3c4ccccc4CCC3C1[C@H](CCC(=O)N1CCOCC1)c1c[nH]nc12 (stereo partly drawn) [Compound 249, 3-((8aS,12S)-8a-methyl-1,2,6b,7,8,8a,10,12,12a,12b-decahydronaphtho[2′,1′:4,5]indeno[1,2-c]pyrazol-12-yl)-1-morpholinopropan-1-one]
inhibition at 0.1 µM [1]: 59%
inhibition at 1 µM [2]: 7%

C[C@]12CCC3c4ccccc4CCC3C1[C@H](CCC(=O)Nc1ncc(F)cc1F)c1c[nH]nc12 (stereo partly drawn) [Compound 261, N-(3,5-difluoropyridin-2-yl)-3-((8aS,12S)-8a-methyl-1,2,6b,7,8,8a,10,12,12a,12b-decahydronaphtho[2′,1′:4,5]indeno[1,2-c]pyrazol-12-yl)propanamide]
inhibition at 0.1 µM [1]: 50%
inhibition at 1 µM [2]: 9%

C[C@]12CCC3c4ccccc4CCC3C1[C@H](CCC(=O)Nc1ncccc1F)c1c[nH]nc12 (stereo partly drawn) [Compound 264, N-(3-fluoropyridin-2-yl)-3-((8aS,12S)-8a-methyl-1,2,6b,7,8,8a,10,12,12a,12b-decahydronaphtho[2′,1′:4,5]indeno[1,2-c]pyrazol-12-yl)propanamide]
inhibition at 0.1 µM [1]: 54%
inhibition at 1 µM [2]: 4%
